# ChEMBL document CHEMBL1201861, “Genomics of Drug Sensitity in Cancer screening data, Wellcome Trust Sanger Institute”
# pIC50: −log10 of the molar value.
# Columns and labels:
# [1] = tested on: U-118-MG; test: cells; type: functional, cell-based; settings: Homo sapiens
# Description: SANGER: Inhibition of human U-118-MG cell growth in a cell viability assay.
# [2] = tested on: C3A; test: cells; type: functional, cell-based; settings: Homo sapiens;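 note: growth inhibition of C3A human cells, quantified with a cell viability readout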
# Description: SANGER: Inhibition of human C3A cell growth in a cell viability assay.
# [3] = tested on: MDA-MB-231; test: cells; type: functional, cell-based; settings: Homo sapiens
# Description: SANGER: Inhibition of human MDA-MB-231 cell growth in a cell viability assay.
# [4] = tested on: GAMG; test: cells; type: functional, cell-based; settings: Homo sapiens;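 note: cell growth inhibition measured by a viability assay in the GAMG human cell line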
# Description: SANGER: Inhibition of human GAMG cell growth in a cell viability assay.
# [5] = tested on: CAMA-1; test: cells; type: functional, cell-based; settings: Homo sapiens;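 note: growth inhibition of CAMA-1 cells, read out with a cell viability assay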
# Description: SANGER: Inhibition of human CAMA-1 cell growth in a cell viability assay.
# [6] = tested on: 8305C; test: cells; type: functional, cell-based; settings: Homo sapiens
# Description: SANGER: Inhibition of human 8305C cell growth in a cell viability assay.
# [7] = tested on: U2OS; test: cells; type: functional, cell-based, U-2-OS; settings: Homo sapiens;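 note: growth inhibition of human U-2-OS cells, determined with a cell viability assay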
# Description: SANGER: Inhibition of human U-2-OS cell growth in a cell viability assay.
# [8] = tested on: MDA-MB-415; test: cells; type: functional, cell-based; settings: Homo sapiens
# [9] = tested on: HOS; test: cells; type: functional, cell-based; settings: Homo sapiens;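 note: growth inhibition of human HOS cells, read out with a cell viability assay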
# Description: SANGER: Inhibition of human HOS cell growth in a cell viability assay.
# [10] = tested on: M14; test: cells; type: functional, cell-based; settings: Homo sapiens;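 note: growth inhibition of M14 cells, read out with a cell viability assay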
# Description: SANGER: Inhibition of human M14 cell growth in a cell viability assay.
# [11] = tested on: HCC1954; test: cells; type: functional, cell-based; settings: Homo sapiens;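 note: growth inhibition of human HCC1954 cells, read out with a cell viability assay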
# Description: SANGER: Inhibition of human HCC1954 cell growth in a cell viability assay.
# [12] = tested on: EGI-1; test: cells; type: functional, cell-based; settings: Homo sapiens;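 note: cell viability readout used to gauge growth inhibition of EGI-1 cells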
# Description: SANGER: Inhibition of human EGI-1 cell growth in a cell viability assay.
# [13] = tested on: G-402; test: cells; type: functional, cell-based; settings: Homo sapiens
# Description: SANGER: Inhibition of human G-402 cell growth in a cell viability assay.
# [14] = tested on: NY; test: cells; type: functional, cell-based; settings: Homo sapiens
# Description: SANGER: Inhibition of human NY cell growth in a cell viability assay.
# [15] = tested on: NCI-H28; test: cells; type: functional, cell-based; settings: Homo sapiens;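 note: growth inhibition of human NCI-H28 cells, read out as cell viability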
# Description: SANGER: Inhibition of human NCI-H28 cell growth in a cell viability assay.
# [16] = tested on: SW626; test: cells; type: functional, cell-based; settings: Homo sapiens;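 note: growth inhibition of SW626 cells, measured with a cell viability assay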
# Description: SANGER: Inhibition of human SW626 cell growth in a cell viability assay.
# [17] = tested on: SW1417; test: cells; type: functional, cell-based; settings: Homo sapiens;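 note: growth inhibition of human SW1417 cells, read out with a cell viability assay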
# Description: SANGER: Inhibition of human SW1417 cell growth in a cell viability assay.
# [18] = tested on: SNU-423; test: cells; type: functional, cell-based; settings: Homo sapiens
# Description: SANGER: Inhibition of human SNU-423 cell growth in a cell viability assay.
# [19] = tested on: D-392MG; test: cells; type: functional, cell-based; settings: Homo sapiens
# [20] = tested on: T98G; test: cells; type: functional, cell-based; settings: Homo sapiens;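 note: growth inhibition of T98G cells, read out by a cell viability assay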
# Description: SANGER: Inhibition of human T98G cell growth in a cell viability assay.
# [21] = tested on: MOLT-13; test: cells; type: functional, cell-based; settings: Homo sapiens;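 note: IC50 for suppression of MOLT-13 cell growth, read out with a cell viability assay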
# Description: SANGER: Inhibition of human MOLT-13 cell growth in a cell viability assay.
# [22] = tested on: JEG-3; test: cells; type: functional, cell-based; settings: Homo sapiens;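 note: growth inhibition of human JEG-3 cells, read out with a cell viability assay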
# Description: SANGER: Inhibition of human JEG-3 cell growth in a cell viability assay.
# [23] = tested on: CHL-1; test: cells; type: functional, cell-based; settings: Homo sapiens;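 note: cell growth inhibition, read out with a cell viability assay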
# Description: SANGER: Inhibition of human CHL-1 cell growth in a cell viability assay.
# [24] = tested on: KYSE-450; test: cells; type: functional, cell-based; settings: Homo sapiens;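 note: cell growth inhibition measured by a viability assay in human KYSE-450 cells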
# Description: SANGER: Inhibition of human KYSE-450 cell growth in a cell viability assay.
# [25] = tested on: Panc1005; test: cells; type: functional, cell-based; settings: Homo sapiens;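 note: growth inhibition of human PANC-10-05 cells, measured by a cell viability assay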
# Description: SANGER: Inhibition of human PANC-10-05 cell growth in a cell viability assay.
# [26] = tested on: NCI-H727; test: cells; type: functional, cell-based; settings: Homo sapiens;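 note: growth inhibition of human NCI-H727 cells, read out with a cell viability assay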
# Description: SANGER: Inhibition of human NCI-H727 cell growth in a cell viability assay.
# [27] = tested on: COLO-679; test: cells; type: functional, cell-based; settings: Homo sapiens
# Description: SANGER: Inhibition of human COLO-679 cell growth in a cell viability assay.
# [28] = tested on: HuP-T4; test: cells; type: functional, cell-based; settings: Homo sapiens;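 note: cell viability assay measuring how much HuP-T4 cell growth is inhibited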
# Description: SANGER: Inhibition of human HuP-T4 cell growth in a cell viability assay.
# [29] = tested on: NCI-H1437; test: cells; type: functional, cell-based; settings: Homo sapiens;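 note: growth inhibition of human NCI-H1437 cells, read out by a cell viability assay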
# Description: SANGER: Inhibition of human NCI-H1437 cell growth in a cell viability assay.
# [30] = tested on: COLO-678; test: cells; type: functional, cell-based; settings: Homo sapiens
# Description: SANGER: Inhibition of human COLO-678 cell growth in a cell viability assay.
# [31] = tested on: DBTRG-05MG; test: cells; type: functional, cell-based; settings: Homo sapiens;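 note: cell viability assay measuring growth inhibition of human DBTRG-05MG cells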
# Description: SANGER: Inhibition of human DBTRG-05MG cell growth in a cell viability assay.
# [32] = tested on: COLO-792; test: cells; type: functional, cell-based; settings: Homo sapiens
# Description: SANGER: Inhibition of human COLO-792 cell growth in a cell viability assay.
# [33] = tested on: ChaGo-K-1; test: cells; type: functional, cell-based; settings: Homo sapiens;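 note: growth inhibition of ChaGo-K-1 cells, read out with a cell viability assay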
# Description: SANGER: Inhibition of human ChaGo-K-1 cell growth in a cell viability assay.
# [34] = tested on: SAOS-2; test: cells; type: functional, cell-based; settings: Homo sapiens;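 note: growth inhibition of human Saos-2 cells determined by a cell viability assay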
# Description: SANGER: Inhibition of human Saos-2 cell growth in a cell viability assay.
# [35] = tested on: MHH-ES-1; test: cells; type: functional, cell-based; settings: Homo sapiens
# Description: SANGER: Inhibition of human MHH-ES-1 cell growth in a cell viability assay.
# [36] = tested on: HEC-1; test: cells; type: functional, cell-based; settings: Homo sapiens;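 note: growth inhibition of the cell line, read out with a cell viability assay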
# Description: SANGER: Inhibition of human HEC-1 cell growth in a cell viability assay.
# [37] = tested on: RPMI-2650; test: cells; type: functional, cell-based; settings: Homo sapiens
# Description: SANGER: Inhibition of human RPMI-2650 cell growth in a cell viability assay.
# [38] = tested on: BFTC-909; test: cells; type: functional, cell-based; settings: Homo sapiens
# Description: SANGER: Inhibition of human BFTC-909 cell growth in a cell viability assay.
# [39] = tested on: CAL-12T; test: cells; type: functional, cell-based; settings: Homo sapiens;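 note: growth inhibition of human CAL-12T cells, read out with a cell viability assay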
# Description: SANGER: Inhibition of human CAL-12T cell growth in a cell viability assay.
# [40] = tested on: FaDu; test: cells; type: functional, cell-based; settings: Homo sapiens;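 note: cell viability readout of growth inhibition in FaDu cells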
# Description: SANGER: Inhibition of human FADU cell growth in a cell viability assay.
# [41] = tested on: SiHa; test: cells; type: functional, cell-based; settings: Homo sapiens;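 note: Viability-based readout of growth inhibition in SiHa cells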
# Description: SANGER: Inhibition of human SiHa cell growth in a cell viability assay.
# [42] = tested on: ESS-1; test: cells; type: functional, cell-based; settings: Homo sapiens;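 note: growth inhibition of human ESS-1 cells, read out by a cell viability assay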
# Description: SANGER: Inhibition of human ESS-1 cell growth in a cell viability assay.
# [43] = tested on: A2780; test: cells; type: functional, cell-based; settings: Homo sapiens;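 note: growth inhibition of A2780 cells, read out with a cell viability assay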
# Description: SANGER: Inhibition of human A2780 cell growth in a cell viability assay.
# [44] = tested on: COR-L105; test: cells; type: functional, cell-based; settings: Homo sapiens
# Description: SANGER: Inhibition of human COR-L105 cell growth in a cell viability assay.
# [45] = tested on: NCI-H2030; test: cells; type: functional, cell-based; settings: Homo sapiens;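 note: growth inhibition of human NCI-H2030 cells, read out by a cell viability assay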
# Description: SANGER: Inhibition of human NCI-H2030 cell growth in a cell viability assay.
# [46] = tested on: SK-N-AS; test: cells; type: functional, cell-based; settings: Homo sapiens;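 note: growth inhibition of human SK-N-AS cells, measured with a cell viability assay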
# Description: SANGER: Inhibition of human SK-N-AS cell growth in a cell viability assay.
# [47] = tested on: Detroit 562; test: cells; type: functional, cell-based; settings: Homo sapiens;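 note: growth inhibition of human Detroit 562 cells, read out by a cell viability assay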
# Description: SANGER: Inhibition of human Detroit562 cell growth in a cell viability assay.
# [48] = tested on: ACHN; test: cells; type: functional, cell-based; settings: Homo sapiens;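 note: cell viability read-out used to gauge how strongly growth of human ACHN cells is suppressed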
# Description: SANGER: Inhibition of human ACHN cell growth in a cell viability assay.
# [49] = tested on: MKN-45; test: cells; type: functional, cell-based; settings: Homo sapiens;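 note: growth inhibition of human MKN-45 cells, measured with a cell viability assay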
# Description: SANGER: Inhibition of human MKN45 cell growth in a cell viability assay.
# [50] = tested on: NCI-H1963; test: cells; type: functional, cell-based, Homo sapiens; settings: Homo sapiens, NCI-H1963;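 note: cell growth inhibition of the human line, determined with a cell viability assay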
# Description: SANGER: Inhibition of human NCI-H1963 cell growth in a cell viability assay.
# [51] = tested on: NCI-H2171; test: cells; type: functional, cell-based, Homo sapiens; settings: Homo sapiens, NCI-H2171;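 note: growth inhibition of human NCI-H2171 cells, read out by a cell viability assay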
# Description: SANGER: Inhibition of human NCI-H2171 cell growth in a cell viability assay.
# [52] = tested on: NCI-H322M; test: cells; type: functional, cell-based, Homo sapiens; settings: Homo sapiens, NCI-H322M;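 note: cell viability assay measuring inhibition of growth of human NCI-H322M cells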
# Description: SANGER: Inhibition of human NCI-H322M cell growth in a cell viability assay.
# [53] = tested on: ST486; test: SANGER: Inhibition of human ST486 cell growth in a cell viability assay.; type: functional, cell-based; settings: Homo sapiens, ST486
# [54] = tested on: YT; test: cells; type: functional, cell-based, Homo sapiens; settings: Homo sapiens, YT
# Description: SANGER: Inhibition of human YT cell growth in a cell viability assay.
# [55] = tested on: LP-1; test: cells; type: functional, cell-based, Homo sapiens; settings: Homo sapiens, LP-1;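 note: growth inhibition of human LP-1 cells, with the read-out taken from a cell viability assay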
# Description: SANGER: Inhibition of human LP-1 cell growth in a cell viability assay.
# [56] = tested on: NCI-H1417; test: cells; type: functional, cell-based, Homo sapiens; settings: Homo sapiens, NCI-H1417;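 note: human NCI-H1417 cells, growth inhibition determined with a cell viability readout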
# Description: SANGER: Inhibition of human NCI-H1417 cell growth in a cell viability assay.
# [57] = tested on: SU-DHL-1; test: SANGER: Inhibition of human SU-DHL-1 cell growth in a cell viability assay.; type: functional, cell-based; settings: Homo sapiens, SU-DHL-1
# [58] = tested on: NCI-H2081; test: cells; type: functional, cell-based, Homo sapiens; settings: Homo sapiens, NCI-H2081;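 note: growth inhibition of human NCI-H2081 cells, read out with a cell viability assay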
# Description: SANGER: Inhibition of human NCI-H2081 cell growth in a cell viability assay.
# [59] = tested on: RPMI-6666; test: cells; type: functional, cell-based, Homo sapiens; settings: Homo sapiens, RPMI-6666
# Description: SANGER: Inhibition of human RPMI-6666 cell growth in a cell viability assay.
# [60] = tested on: SIG-M5; test: cells; type: functional, cell-based, Homo sapiens; settings: Homo sapiens, SIG-M5;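 note: cell viability assay read-out, measuring how strongly growth of cultured human SIG-M5 cells is inhibited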
# Description: SANGER: Inhibition of human SIG-M5 cell growth in a cell viability assay.
compound,measurement,setting,value
CN(C)CCOc1ccc(-c2nc(-c3ccncc3)c(-c3ccc4c(c3)CC/C4=N\O)[nH]2)cc1 [SB590885],pIC50,[1],< 5.30
same,pIC50,[2],< 5.30
same,pIC50,[3],< 5.30
same,pIC50,[4],< 5.30
same,pIC50,[5],< 5.30
same,pIC50,[6],< 5.30
same,pIC50,[7],< 5.30
same,pIC50,[8],< 5.30
same,pIC50,[9],< 5.30
same,pIC50,[10],7.09
same,pIC50,[11],< 5.30
same,pIC50,[12],< 5.30
same,pIC50,[13],< 5.30
same,pIC50,[14],< 5.30
same,pIC50,[15],< 5.30
same,pIC50,[16],< 5.30
same,pIC50,[17],< 5.30
same,pIC50,[18],< 5.30
same,pIC50,[19],< 5.30
same,pIC50,[20],< 5.30
same,pIC50,[21],< 5.30
same,pIC50,[22],< 5.30
same,pIC50,[23],< 5.30
same,pIC50,[24],< 5.30
same,pIC50,[25],< 5.30
same,pIC50,[26],< 5.30
same,pIC50,[27],6.41
same,pIC50,[28],< 5.30
same,pIC50,[29],< 5.30
same,pIC50,[30],< 5.30
same,pIC50,[31],5.45
same,pIC50,[32],< 5.30
same,pIC50,[33],< 5.30
same,pIC50,[34],< 5.30
same,pIC50,[35],< 5.30
same,pIC50,[36],< 5.30
same,pIC50,[37],< 5.30
same,pIC50,[38],< 5.30
same,pIC50,[39],< 5.30
same,pIC50,[40],< 5.30
same,pIC50,[41],< 5.30
same,pIC50,[42],< 5.30
same,pIC50,[43],< 5.30
same,pIC50,[44],< 5.30
same,pIC50,[45],< 5.30
same,pIC50,[46],< 5.30
same,pIC50,[47],< 5.30
NC1(c2ccc(-c3nc4ccn5c(=O)[nH]nc5c4cc3-c3ccccc3)cc2)CCC1 [MK-2206],pIC50,[1],< 5.40
same,pIC50,[2],< 5.40
same,pIC50,[3],< 5.40
same,pIC50,[4],5.65
same,pIC50,[5],< 5.40
same,pIC50,[6],< 5.40
same,pIC50,[7],< 5.40
same,pIC50,[8],6.20
same,pIC50,[9],5.83
same,pIC50,[10],< 5.40
same,pIC50,[11],< 5.40
same,pIC50,[12],< 5.40
same,pIC50,[13],5.43
same,pIC50,[14],< 5.40
same,pIC50,[15],< 5.40
same,pIC50,[16],< 5.40
same,pIC50,[17],< 5.40
same,pIC50,[18],5.54
same,pIC50,[19],< 5.40
same,pIC50,[20],< 5.40
same,pIC50,[21],< 5.40
same,pIC50,[22],< 5.40
same,pIC50,[23],< 5.40
same,pIC50,[24],< 5.40
same,pIC50,[25],< 5.40
same,pIC50,[26],< 5.40
same,pIC50,[27],< 5.40
same,pIC50,[28],< 5.40
same,pIC50,[29],< 5.40
same,pIC50,[30],< 5.40
same,pIC50,[31],< 5.40
same,pIC50,[32],< 5.40
same,pIC50,[33],< 5.40
same,pIC50,[34],< 5.40
same,pIC50,[35],< 5.40
same,pIC50,[36],< 5.40
same,pIC50,[37],< 5.40
same,pIC50,[38],< 5.40
same,pIC50,[39],< 5.40
same,pIC50,[40],< 5.40
same,pIC50,[41],< 5.40
same,pIC50,[42],< 5.40
same,pIC50,[43],< 5.40
same,pIC50,[44],5.75
same,pIC50,[46],< 5.40
same,pIC50,[47],< 5.40
CC1(C)CCC(c2ccc(Cl)cc2)=C(CN2CCN(c3ccc(C(=O)NS(=O)(=O)c4ccc(N[C@H](CCN5CCOCC5)CSc5ccccc5)c(S(=O)(=O)C(F)(F)F)c4)cc3)CC2)C1 [NAVITOCLAX],pIC50,[1],< 5.70
same,pIC50,[2],< 5.70
same,pIC50,[48],< 5.70
same,pIC50,[3],< 5.70
same,pIC50,[4],< 5.70
same,pIC50,[5],< 5.70
same,pIC50,[6],< 5.70
same,pIC50,[7],< 5.70
same,pIC50,[8],5.86
same,pIC50,[49],< 5.70
same,pIC50,[9],< 5.70
same,pIC50,[10],< 5.70
same,pIC50,[11],< 5.70
same,pIC50,[12],< 5.70
same,pIC50,[13],< 5.70
same,pIC50,[14],< 5.70
same,pIC50,[15],< 5.70
same,pIC50,[16],< 5.70
same,pIC50,[17],6.26
same,pIC50,[18],5.75
same,pIC50,[19],< 5.70
same,pIC50,[20],< 5.70
same,pIC50,[21],6.33
same,pIC50,[22],< 5.70
same,pIC50,[23],< 5.70
same,pIC50,[24],< 5.70
same,pIC50,[25],< 5.70
same,pIC50,[26],< 5.70
same,pIC50,[27],< 5.70
same,pIC50,[28],< 5.70
same,pIC50,[29],< 5.70
same,pIC50,[30],< 5.70
same,pIC50,[31],< 5.70
same,pIC50,[32],5.92
same,pIC50,[33],< 5.70
same,pIC50,[34],< 5.70
same,pIC50,[35],< 5.70
same,pIC50,[36],< 5.70
same,pIC50,[37],< 5.70
same,pIC50,[38],< 5.70
same,pIC50,[39],< 5.70
same,pIC50,[40],< 5.70
same,pIC50,[41],< 5.70
same,pIC50,[42],< 5.70
same,pIC50,[43],< 5.70
same,pIC50,[44],< 5.70
same,pIC50,[45],< 5.70
same,pIC50,[46],< 5.70
same,pIC50,[47],< 5.70
Cc1cc(N2CCOCC2)cc2[nH]c(-c3c(NC[C@@H](O)c4cccc(Cl)c4)cc[nH]c3=O)nc12,pIC50,[50],< 5.29
same,pIC50,[51],< 5.29
same,pIC50,[52],< 5.29
same,pIC50,[21],< 5.29
same,pIC50,[53],< 5.29
same,pIC50,[54],< 5.29
same,pIC50,[55],< 5.29
same,pIC50,[56],< 5.29
same,pIC50,[57],< 5.29
same,pIC50,[58],< 5.29
same,pIC50,[59],5.46
same,pIC50,[60],6.49
